{"source": "ChEMBL document CHEMBL5625204", "about": "“Synthesis and pharmacodynamic evaluation of naphthalene derivatives against influenza A virus in vitro and in vivo” (Eur J Med Chem, 2023)", "key": {"Influenza A virus [1]": {"test_system": "Influenza A virus", "experiment": "Antiviral activity against Influenza A virus H1N1 (A/Weiss/43)-infected in BALB/c mouse assessed as reduction in lung index at 25 mg/kg/day administered intranasally for 6 days starting from 3 hrs post-viral infection", "format": "functional", "details": "144 h, route nas, time 6 day"}, "Erythrocyte": {"test_system": "Erythrocyte", "experiment": "Inhibition of Hemagglutinin2 in Influenza A virus assessed as inhibition of virus-induced hemolysis at 7.81 to 250 uM pretreated with virus for 30 mins followed by chicken RBC addition and measured after 30 mins", "format": "cell-based", "details": "dose 7.81-250 µM, time 60.0 min"}, "Influenza A virus [2]": {"test_system": "Influenza A virus", "experiment": "Antiviral activity against Influenza A virus H1N1 (A/Weiss/43) infected in MDCK cells assessed as reduction of viral replication treated for 2 hrs before viral infection and measured after 72 hrs by TCID50 method", "format": "functional, organism-based"}, "Influenza A virus [3]": {"test_system": "Influenza A virus", "experiment": "Antiviral activity against Influenza A virus H1N1 (A/Weiss/43)-infected in BALB/c mouse assessed as reduction in viral NP mRNA expression in lungs at 25 to 100 mg/kg/day administered intranasally for 2 to 6 days starting from 3 hrs post-viral infection by qRT-PCR analysis", "format": "functional, organism-based", "details": "dose 25-100 mg/kg/day, route nas, time 2-6 day"}, "[4]": {"experiment": "Selectivity index, ratio of CC50 for dog MDCK cells to EC50 for antiviral activity against Influenza A virus H1N1 (A/Weiss/43) infected in MDCK cells treated for 72 hrs after viral adsorption", "format": "toxicity, cell-based", "details": "read-out: Ratio CC50/EC50"}, "Influenza A virus [5]": {"test_system": "Influenza A virus", "experiment": "Antiviral activity against Influenza A virus H1N1 (A/Weiss/43)-infected in BALB/c mouse assessed as reduction in pulmonary inflammation at 25 to 100 mg/kg/day administered intranasally for 6 days starting from 3 hrs post-viral infection by Hematoxylin-Eosin staining based analysis", "format": "functional, organism-based", "details": "dose 25-100 mg/kg/day, route nas, time 6.0 day"}, "Influenza A virus [6]": {"test_system": "Influenza A virus", "experiment": "Antiviral activity against Influenza A virus H1N1 (A/Weiss/43)-infected in BALB/c mouse assessed as reduction in lung index at 100 mg/kg/day administered intranasally for 6 days starting from 3 hrs post-viral infection", "format": "functional", "details": "144 h, route nas, time 6 day"}, "Influenza A virus [7]": {"test_system": "Influenza A virus", "experiment": "Antiviral activity against Influenza A virus H1N1 (A/Weiss/43)-infected in BALB/c mouse assessed as reduction in lung index at 50 mg/kg/day administered intranasally for 6 days starting from 3 hrs post-viral infection", "format": "functional", "details": "144 h, route nas, time 6 day"}, "[8]": {"experiment": "Selectivity index, ratio of CC50 for dog MDCK cells to EC50 for antiviral activity against Influenza A virus H3N2 (A/California/2004) infected in MDCK cells", "format": "toxicity, cell-based", "details": "read-out: Ratio CC50/EC50"}, "Influenza A virus [9]": {"test_system": "Influenza A virus", "experiment": "Inhibition of Influenza A virus replication infected in dog MDCK cells assessed as downregulation of virus NP protein expression by measuring decrease in green fluorescence intensity at 25 to 50 uM measured after 24 hrs by immunofluorescence analysis", "format": "functional, organism-based", "details": "dose 25-50 µM"}, "Influenza A virus [10]": {"test_system": "Influenza A virus", "experiment": "Inhibition of Influenza A virus replication infected in dog MDCK cells assessed as downregulation of virus M2 protein expression by measuring decrease in green fluorescence intensity at 25 to 50 uM measured after 24 hrs by immunofluorescence analysis", "format": "functional, organism-based", "details": "dose 25-50 µM"}, "Influenza A virus [11]": {"test_system": "Influenza A virus", "experiment": "Inhibition of Influenza A virus replication infected in human A549 cells assessed as downregulation of virus NP protein expression at 25 to 50 uM measured after 24 hrs by western blot analysis", "format": "functional, organism-based", "details": "dose 25-50 µM"}, "Influenza A virus [12]": {"test_system": "Influenza A virus", "experiment": "Antiviral activity against Influenza A virus H1N1 (A/Weiss/43)-infected in dog MDCK cells assessed as reduction in oxidative stress by measuring proportion of normal cells at 50 uM treated at 2 hrs post-infection and measured after 36 hrs by DCFH-DA staining based flow cytometry (reference value: 69.4%)", "format": "functional", "parameters": "scale not given: the % may be the effect or the level left"}, "[13]": {"experiment": "Toxicity in dog MDCK cells assessed as ROS production by measuring proportion of normal cells at 50 uM measured after 36 hrs by DCFH-DA staining based flow cytometry (reference value: 99.9%)", "format": "cell-based, Canis lupus familiaris"}, "Influenza A virus [14]": {"test_system": "Influenza A virus", "experiment": "Antiviral activity against Influenza A virus H1N1 infected in dog MDCK cells assessed as decrease in apoptosis by measuring proportion of necrotic cells at 25 uM measured after 72 hrs by AnnexinV-FITC/PI staining based flow cytometry (reference value: 2.47%)", "format": "functional", "parameters": "scale not given: the % may be the effect or the level left"}, "Influenza A virus [15]": {"test_system": "Influenza A virus", "experiment": "Antiviral activity against Influenza A virus H1N1 infected in dog MDCK cells assessed as decrease in apoptosis by measuring proportion of viable cells at 50 uM measured after 72 hrs by AnnexinV-FITC/PI staining based flow cytometry (reference value: 62.9%)", "format": "functional"}, "[16]": {"experiment": "Toxicity in dog MDCK cells assessed as proportion of necrotic cells at 50 uM measured after 72 hrs by AnnexinV-FITC/PI staining based flow cytometry (reference value: 1.4%)", "format": "cell-based, Canis lupus familiaris"}, "Influenza A virus [17]": {"test_system": "Influenza A virus", "experiment": "Antiviral activity against Influenza A virus H1N1 infected in human A549 cells assessed as decrease in apoptosis by measuring decrease in cleaved caspase-9 protein expression at 25 to 50 uM measured after 24 hrs by western blot analysis", "format": "functional, organism-based", "details": "dose 25-50 µM"}, "Influenza A virus [18]": {"test_system": "Influenza A virus", "experiment": "Antiviral activity against Influenza A virus H1N1 infected in human A549 cells assessed as decrease in RIG-1 pathway related gene expression by measuring decrease in MAVS gene expression at 25 to 50 uM measured after 24 hrs by qRT-PCR analysis", "format": "functional, organism-based", "details": "dose 25-50 µM"}, "Influenza A virus [19]": {"test_system": "Influenza A virus", "experiment": "Antiviral activity against Influenza A virus H1N1 infected in human A549 cells assessed as decrease in RIG-1 pathway related gene expression by measuring decrease in IRF3 gene expression at 25 to 50 uM measured after 24 hrs by qRT-PCR analysis", "format": "functional, organism-based", "details": "dose 25-50 µM"}, "Influenza A virus [20]": {"test_system": "Influenza A virus", "experiment": "Antiviral activity against Influenza A virus H1N1 infected in human A549 cells assessed as decrease in RIG-1 pathway related gene expression by measuring decrease in IRF7 gene expression at 25 to 50 uM measured after 24 hrs by qRT-PCR analysis", "format": "functional, organism-based", "details": "dose 25-50 µM"}, "Influenza A virus [21]": {"test_system": "Influenza A virus", "experiment": "Antiviral activity against Influenza A virus H1N1 infected in human A549 cells assessed as decrease in apoptosis inducing factor gene expression by measuring decrease in FasL gene expression at 25 to 50 uM measured after 24 hrs by qRT-PCR analysis", "format": "functional, organism-based", "details": "dose 25-50 µM"}, "Influenza A virus [22]": {"test_system": "Influenza A virus", "experiment": "Antiviral activity against Influenza A virus H1N1 infected in human A549 cells assessed as decrease in cytokine gene expression by measuring decrease in IL-1 beta gene expression at 25 to 50 uM measured after 24 hrs by qRT-PCR analysis", "format": "functional, organism-based", "details": "dose 25-50 µM"}, "Influenza A virus [23]": {"test_system": "Influenza A virus", "experiment": "Antiviral activity against Influenza A virus H1N1 infected in human A549 cells assessed as decrease in cytokine gene expression by measuring decrease in IL-6 gene expression at 25 to 50 uM measured after 24 hrs by qRT-PCR analysis", "format": "functional, organism-based", "details": "dose 25-50 µM"}, "Influenza A virus [24]": {"test_system": "Influenza A virus", "experiment": "Antiviral activity against Influenza A virus H1N1 infected in human A549 cells assessed as decrease in cytokine gene expression by measuring decrease in IL-8 gene expression at 25 to 50 uM measured after 24 hrs by qRT-PCR analysis", "format": "functional, organism-based", "details": "dose 25-50 µM"}, "Influenza A virus [25]": {"test_system": "Influenza A virus", "experiment": "Antiviral activity against Influenza A virus H1N1 infected in human A549 cells assessed as decrease in cytokine gene expression by measuring decrease in TNF-alpha gene expression at 25 to 50 uM measured after 24 hrs by qRT-PCR analysis", "format": "functional, organism-based", "details": "dose 25-50 µM"}, "Influenza A virus [26]": {"test_system": "Influenza A virus", "experiment": "Antiviral activity against Influenza A virus H1N1 (A/Weiss/43)-infected in BALB/c mouse assessed as reduction in OAS1 gene expression in lungs at 25 to 100 mg/kg/day administered intranasally for 6 days starting from 3 hrs post-viral infection by qRT-PCR analysis", "format": "functional, organism-based", "details": "dose 25-100 mg/kg/day, route nas, time 6.0 day"}}, "note": "Activity calls are given as the source filed them. No cut-off for these calls is given here."}
{"smiles": "O=[N+]([O-])c1ccc(S(=O)(=O)N(Cc2ccccc2)c2cccc3ccccc23)cc1", "values": [{"measurement": "inhibition in vivo at 25 mg/kg/day", "setting": "Influenza A virus [1]", "result": 20.6, "unit": "%"}, {"measurement": "inhibition", "setting": "Erythrocyte", "result": "inactive"}, {"measurement": "EC50", "setting": "Influenza A virus [2]", "result": 7.61, "unit": "µM"}, {"measurement": "Activity", "setting": "Influenza A virus [3]", "result": "Active"}, {"measurement": "selectivity ratio at 72 h", "setting": "[4]", "result": "> 351"}, {"measurement": "Activity", "setting": "Influenza A virus [5]", "result": "Dose-Dependent Effect"}, {"measurement": "inhibition in vivo at 100 mg/kg/day", "setting": "Influenza A virus [6]", "result": 43.3, "unit": "%"}, {"measurement": "inhibition in vivo at 50 mg/kg/day", "setting": "Influenza A virus [7]", "result": 28.8, "unit": "%"}, {"measurement": "selectivity ratio", "setting": "[8]", "result": "> 121"}, {"measurement": "inhibition", "setting": "Influenza A virus [9]", "result": "Active"}, {"measurement": "inhibition", "setting": "Influenza A virus [10]", "result": "Active"}, {"measurement": "inhibition", "setting": "Influenza A virus [11]", "result": "Active"}, {"measurement": "Activity", "setting": "Influenza A virus [12]", "result": 95.3, "unit": "%"}, {"measurement": "Activity", "setting": "[13]", "result": 98.6, "unit": "%"}, {"measurement": "Activity", "setting": "Influenza A virus [14]", "result": 0.81, "unit": "%"}, {"measurement": "Activity", "setting": "Influenza A virus [15]", "result": 95.4, "unit": "%"}, {"measurement": "Activity", "setting": "[16]", "result": 0.82, "unit": "%"}, {"measurement": "inhibition", "setting": "Influenza A virus [17]", "result": "Active"}, {"measurement": "inhibition", "setting": "Influenza A virus [18]", "result": "Active"}, {"measurement": "inhibition", "setting": "Influenza A virus [19]", "result": "Active"}, {"measurement": "inhibition", "setting": "Influenza A virus [20]", "result": "Active"}, {"measurement": "inhibition", "setting": "Influenza A virus [21]", "result": "Active"}, {"measurement": "inhibition", "setting": "Influenza A virus [22]", "result": "Active"}, {"measurement": "inhibition", "setting": "Influenza A virus [23]", "result": "Active"}, {"measurement": "inhibition", "setting": "Influenza A virus [24]", "result": "Active"}, {"measurement": "inhibition", "setting": "Influenza A virus [25]", "result": "Active"}, {"measurement": "Activity", "setting": "Influenza A virus [26]", "result": "Active"}]}
